Results from patent USRE39496E1, “Kahalalide F and compositions and uses thereof” (PharmaMar, S.A., priority 1993, dated 2007).

Experiments:
[1] = tested on: human lung carcinoma A-549; assay: In vitro cytotoxicity, A-549 cell culture; format: cell-based; conditions: A-549 cells
Experimental: (§1) The antitumor activities of this compound has been determined “in vitro” in cell cultures of human lung carcinoma A-549 and human colon carcinoma HT-29. The procedure was carried out using the metnhodology methodology described by Raymond J. Bergeron et al. Biochem. Bioph. Res. Comm. 1984, 121(3), 848-854 and by Alan C. Schroeder et al. J. Med. Chem. 1981, 24 1078-1083.

[2] = tested on: human colon carcinoma HT-29; assay: In vitro cytotoxicity, HT-29 cell culture; format: cell-based; conditions: HT-29 cells
Experimental: as §1

HSV II = conditions: Mv 2 Lu cells / HSV II; concentration giving the printed % reduction
HSV-1 = conditions: CV-1 cells / HSV-1
Aspergillus oryzae = conditions: 50 μg/disk
Penicillium notatum = conditions: 50 μg/disk
Tricophyton mentagrophy = conditions: 50 μg/disk
Saccharomyces cerevisiac = conditions: 50 μg/disk
Candida albicans = conditions: 50 μg/disk

C/C=C1\NC(=O)[C@H](Cc2ccccc2)NC(=O)[C@@H](C(C)C)NC(=O)[C@@H]([C@@H](C)CC)NC(=O)[C@H](NC(=O)[C@H](NC(=O)[C@H](CCCN)NC(=O)[C@H]2CCCN2C(=O)[C@H](NC(=O)[C@@H](NC(=O)[C@@H](NC(=O)[C@H](NC(=O)CCCC(C)C)C(C)C)[C@@H](C)O)C(C)C)C(C)C)[C@@H](C)CC)[C@@H](C)OC(=O)[C@H](C(C)C)NC1=O [Kahalalide F]
Cytoxicity (IC50) [1]: 2.5 µg/mL | Cytoxicity (IC50) [2]: 0.25 to 0.5 µg/mL | Antiviral (HSV II): 0.5 µg/mL | Antiviral (HSV-1): >8 µg/mL | Antiviral (VSV): >8 µg/mL | Antifungal 6 mm disk (Aspergillus oryzae): 19 mm | Antifungal 6 mm disk (Penicillium notatum): 26 mm | Antifungal 6 mm disk (Tricophyton mentagrophy): 34 mm | Antifungal 6 mm disk (Saccharomyces cerevisiac): neg | Antifungal 6 mm disk (Candida albicans): 16 mm
